Results from US8722670B2, “Selective NR2B antagonists” (Bristol-Myers Squibb Company, priority 2011, dated 2014).

target: T1, hNR2B (Homo sapiens, UniProt Q05586+Q13224); assay: Electrophysiology NMDA receptor experiments: two electrode voltage-clamp in Xenopus laevis oocytes, hNR2B IC50; format: cell-based; settings: Activity, hNR2B activity class, 50 μM glutamate, 30 μM glycine
T1 construct: expressed in transfected cells; host or cells: Xenopus laevis oocytes, cRNA-injected
T1 sequence (Q13224 27-1484, other chains not shown): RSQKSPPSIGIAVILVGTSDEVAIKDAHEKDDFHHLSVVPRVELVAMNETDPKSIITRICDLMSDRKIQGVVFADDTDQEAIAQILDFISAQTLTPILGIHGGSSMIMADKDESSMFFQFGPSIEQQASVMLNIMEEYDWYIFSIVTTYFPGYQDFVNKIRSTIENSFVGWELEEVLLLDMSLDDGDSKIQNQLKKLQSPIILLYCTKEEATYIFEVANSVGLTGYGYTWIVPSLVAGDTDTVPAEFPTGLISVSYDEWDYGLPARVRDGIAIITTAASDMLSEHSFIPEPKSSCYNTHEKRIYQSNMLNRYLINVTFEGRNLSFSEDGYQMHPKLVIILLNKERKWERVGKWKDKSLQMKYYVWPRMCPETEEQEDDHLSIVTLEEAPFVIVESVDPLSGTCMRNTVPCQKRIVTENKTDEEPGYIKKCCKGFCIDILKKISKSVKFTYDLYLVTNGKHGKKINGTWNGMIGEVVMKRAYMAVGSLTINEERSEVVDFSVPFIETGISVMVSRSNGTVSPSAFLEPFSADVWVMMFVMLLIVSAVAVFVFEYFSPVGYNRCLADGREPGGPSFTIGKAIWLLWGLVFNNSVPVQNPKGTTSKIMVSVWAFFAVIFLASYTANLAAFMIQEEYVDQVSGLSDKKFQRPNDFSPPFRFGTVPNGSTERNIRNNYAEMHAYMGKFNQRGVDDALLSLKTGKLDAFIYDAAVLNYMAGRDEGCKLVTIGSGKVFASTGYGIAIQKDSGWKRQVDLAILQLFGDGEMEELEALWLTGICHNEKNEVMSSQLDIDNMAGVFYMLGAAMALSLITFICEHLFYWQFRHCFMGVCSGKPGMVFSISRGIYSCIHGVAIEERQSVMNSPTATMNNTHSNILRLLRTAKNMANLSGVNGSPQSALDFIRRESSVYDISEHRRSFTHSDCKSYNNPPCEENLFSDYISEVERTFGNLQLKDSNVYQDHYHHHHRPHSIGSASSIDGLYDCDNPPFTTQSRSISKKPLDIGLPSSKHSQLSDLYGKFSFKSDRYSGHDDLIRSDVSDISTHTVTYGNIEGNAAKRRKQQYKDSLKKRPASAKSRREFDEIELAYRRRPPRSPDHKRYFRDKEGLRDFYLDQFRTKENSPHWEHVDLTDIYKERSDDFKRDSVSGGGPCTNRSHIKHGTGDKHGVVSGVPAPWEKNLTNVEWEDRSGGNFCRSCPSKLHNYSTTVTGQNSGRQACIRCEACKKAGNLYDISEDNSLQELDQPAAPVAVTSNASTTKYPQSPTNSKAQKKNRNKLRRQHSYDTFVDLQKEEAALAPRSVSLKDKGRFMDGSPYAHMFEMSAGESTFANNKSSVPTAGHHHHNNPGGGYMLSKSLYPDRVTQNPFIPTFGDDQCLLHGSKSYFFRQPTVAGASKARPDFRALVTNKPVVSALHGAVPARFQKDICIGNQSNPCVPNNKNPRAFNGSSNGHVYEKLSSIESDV
Procedure: Stage V and VI oocytes were surgically removed from the ovaries of large, well-fed and healthy Xenopus laevis anesthetized with 3-amino-benzoic acid ethyl ester (3 gm/l). […] Oocytes were then washed in the same solution supplemented with 1.8 mM CaCl2 and maintained in Barth's solution comprised of (in mM): 88 NaCl, 1 KCl, 2.4 NaHCO3, 10 HEPES, 0.82 MgSO4, 0.33 Ca(NO3)2, and 0.91 CaCl2 and supplemented with 100 μg/ml gentamycin, 10 μg/ml streptomycin, and 10 μg/ml penicillin.
Two electrode voltage-clamp recordings were made 2-7 days post-injection. Oocytes were placed in a dual-track plexiglass recording chamber with a single perfusion line that splits in a Y-configuration to perfuse two oocytes. Dual recordings were made at room temperature (23° C.) using two Warner OC725B two-electrode voltage clamp amplifiers, arranged as recommended by the manufacturer. Glass microelectrodes (1-10 Megaohms) were filled with 300 mM KCl (voltage electrode) or 3 M KCl (current electrode). The bath clamps communicated across silver chloride wires placed into each side of the recording chamber, both of which were assumed to be at a reference potential of 0 mV. Oocytes were perfused with a solution comprised of (in mM) 90 NaCl, 1 KCl, 10 HEPES, 10 EDTA and 0.5 BaCl2; pH 7.4, adjusted by addition of NaOH. Oocytes were recorded under voltage clamp at −40 mV. Final concentrations for glutamate and glycine were 50 μM and 30 μM, respectively. […] Dose response curves consisting of four to eight concentrations were obtained in this manner. The baseline leak current at −40 mV was measured before and after recording, and the full recording linearly corrected for any change in leak current. The level of inhibition by applied experimental compounds was expressed as a percent of the initial glutamate response, and averaged together across oocytes from multiple experiments.
For NMDA receptor subtype selectivity experiments human GluN1/GluN2A, GluN1/GluN2C, and GluN1/GluN2D cRNAs were expressed in Xenopus laevis as described above. Here, 10 μM concentrations of the antagonist was perfused with 50 μM glutamate and 30 μM glycine onto the oocyte for two min and the remaining current in the presence of the antagonist was compared to the maximal current obtained with 50 μM glutamate and 30 μM glycine alone (defined as 100%). When IC50 determinations were made against other NMDA receptor subtypes the protocol as described above was followed.

Row | Compound | IC50
1 | O=c1ccc2cc(OCc3nnc(NCc4ccc(Cl)nc4)o3)ccc2[nH]1 [Example 24] | 1000 to 10000 nM

same assay, conditions: hNR2B IC50 (nM), voltage clamp -40 mV, 50 μM glutamate, 30 μM glycine

Row | Compound | IC50
2 | O=c1ccc2cc(OCc3nnc(NCc4ccc(Cl)nc4)o3)ccc2[nH]1 [Example 24] | 7240 nM

same assay, conditions: hNR2B activity class, 50 μM glutamate, 30 μM glycine, read-out: Activity

Row | Compound | IC50
3 | CC(Oc1ccc2[nH]c(=O)ccc2c1)c1nnc(Nc2ccc(Cl)c(Cl)c2)o1 (single isomer, unassigned) [Example 109] | < 200 nM
4 | O=C1Cc2cc(OCc3nnc(Nc4ccc(Cl)c(Cl)c4)o3)ccc2N1 [Example 8] | < 200 nM
5 | O=C1Cc2cc(OCc3nnc(NCc4ccc(Cl)c(Cl)c4)o3)ccc2N1 [Example 9] | < 200 nM
6 | O=c1ccc2cc(OCc3nnc(Nc4ccc(Cl)c(Cl)c4)o3)ccc2[nH]1 [Example 10] | < 200 nM
7 | O=c1ccc2cc(OCc3nnc(Nc4ccc(Cl)cc4)o3)ccc2[nH]1 [Example 12] | < 200 nM
8 | O=c1ccc2cc(OCc3nnc(Nc4ccc(OC(F)(F)F)cc4)o3)ccc2[nH]1 [Example 13] | < 200 nM
9 | O=C1CCc2cc(OCc3nnc(Nc4ccc(OC(F)(F)F)cc4)o3)ccc2N1 [Example 14] | 201 to 1000 nM
10 | O=C1CCc2cc(OCc3nnc(Nc4ccc(Cl)cn4)o3)ccc2N1 [Example 15] | > 10000 nM
11 | O=C1CCc2cc(OCc3nnc(Nc4ccc(OC(F)F)cc4)o3)ccc2N1 [Example 16] | 201 to 1000 nM
12 | CCOC(=O)Cc1ccc(Nc2nnc(COc3ccc4c(c3)CCC(=O)N4)o2)cc1 [Example 18] | > 10000 nM
13 | O=C1CCc2cc(OCc3nnc(NCc4ccc(Cl)c(Cl)c4)o3)ccc2N1 [Example 21] | < 200 nM
14 | O=c1ccc2cc(OCc3nnc(NCc4ccc(Cl)c(Cl)c4)o3)ccc2[nH]1 [Example 22] | < 200 nM
15 | O=C1CCc2cc(OCc3nnc(NCc4ccc(OC(F)(F)F)cc4)o3)ccc2N1 [Example 23] | < 200 nM
16 | O=C1CCc2cc(OCc3nnc(NCc4ccc(Cl)nc4)o3)ccc2N1 [Example 25] | > 10000 nM
17 | O=c1ccc2cc(OCc3nnc(NCc4ccc(OC(F)(F)F)cc4)o3)ccc2[nH]1 [Example 26] | < 200 nM
18 | O=c1ccc2cc(OCc3nnc(NCc4ccc(OC(F)F)cc4)o3)ccc2[nH]1 [Example 27] | < 200 nM
19 | O=C1CCc2cc(OCc3nnc(NCc4ccc(OC(F)F)cc4)o3)ccc2N1 [Example 28] | < 200 nM
20 | CS(=O)(=O)Nc1ccc(OCc2nnc(Nc3ccc(Cl)c(Cl)c3)o2)cc1 [Example 29] | < 200 nM
21 | CCOC(=O)Nc1ccc(OCc2nnc(Nc3ccc(Cl)c(Cl)c3)o2)cc1 [Example 31] | > 10000 nM
22 | O=c1ccc2cc(OCc3nnc(Nc4ccccc4F)o3)ccc2[nH]1 [Example 33] | > 10000 nM
23 | O=c1ccc2cc(OCc3nnc(Nc4ccccc4)o3)ccc2[nH]1 [Example 34] | 1000 to 10000 nM
24 | O=c1ccc2cc(OCc3nnc(Nc4cccc(F)c4)o3)ccc2[nH]1 [Example 39] | 1000 to 10000 nM

Row | Compound | IC50
25 | O=c1ccc2cc(OCc3nnc(Nc4ccc(F)cc4)o3)ccc2[nH]1 [Example 40] | 1000 to 10000 nM
26 | O=c1ccc2cc(OCc3nnc(Nc4ccccc4Cl)o3)ccc2[nH]1 [Example 41] | > 10000 nM
27 | O=c1ccc2cc(OCc3nnc(Nc4cccc(C(F)(F)F)c4)o3)ccc2[nH]1 [Example 42] | 201 to 1000 nM
28 | Cc1ccc(Nc2nnc(COc3ccc4[nH]c(=O)ccc4c3)o2)cc1 [Example 45] | 201 to 1000 nM
29 | Cc1cccc(Nc2nnc(COc3ccc4[nH]c(=O)ccc4c3)o2)c1 [Example 46] | 1000 to 10000 nM
30 | Clc1ccc(Nc2nnc(COc3ccc4[nH]ncc4c3)o2)cc1Cl [Example 50] | < 200 nM
31 | O=c1ccc2cc(OCc3nnc(Nc4ccc(Cl)c(C(F)(F)F)c4)o3)ccc2[nH]1 [Example 51] | < 200 nM
32 | CC(C)c1ccc(Nc2nnc(COc3ccc4[nH]c(=O)ccc4c3)o2)cc1 [Example 52] | < 200 nM
33 | O=c1ccc2cc(OCc3nnc(Nc4ccccc4C(F)(F)F)o3)ccc2[nH]1 [Example 54] | > 10000 nM
34 | O=c1ccc2cc(OCc3nnc(Nc4ccc(Cl)cc4Cl)o3)ccc2[nH]1 [Example 56] | > 10000 nM
35 | O=c1ccc2cc(OCc3nnc(Nc4cc(Cl)ccc4Cl)o3)ccc2[nH]1 [Example 57] | > 10000 nM
36 | O=c1ccc2cc(OCc3nnc(Nc4cccc(Cl)c4Cl)o3)ccc2[nH]1 [Example 59] | < 200 nM
37 | O=c1ccc2cc(OCc3nnc(NCc4ccccc4Cl)o3)ccc2[nH]1 [Example 63] | 1000 to 10000 nM
38 | O=c1ccc2cc(OCc3nnc(Nc4c(Cl)cccc4Cl)o3)ccc2[nH]1 [Example 66] | > 10000 nM
39 | O=c1ccc2cc(OCc3nnc(NCc4ccc(Cl)cc4F)o3)ccc2[nH]1 [Example 67] | 201 to 1000 nM
40 | O=c1ccc2cc(OCc3nnc(NCc4cccc(F)c4)o3)ccc2[nH]1 [Example 68] | 201 to 1000 nM
41 | O=c1ccc2cc(OCc3nnc(NCc4c(Cl)cccc4Cl)o3)ccc2[nH]1 [Example 70] | 1000 to 10000 nM
42 | O=c1ccc2cc(OCc3nnc(Nc4ccc(C(F)(F)F)c(Cl)c4)o3)ccc2[nH]1 [Example 73] | < 200 nM
43 | O=c1ccc2cc(OCc3nnc(Nc4ccc(OC(F)(F)F)c(Cl)c4)o3)ccc2[nH]1 [Example 74] | < 200 nM
44 | O=c1ccc2cc(OCc3nnc(NCc4ccccc4C(F)(F)F)o3)ccc2[nH]1 [Example 75] | 1000 to 10000 nM
45 | O=c1ccc2cc(OCc3nnc(NCc4ccc(C(F)(F)F)cc4)o3)ccc2[nH]1 [Example 76] | < 200 nM
46 | O=c1ccc2cc(OCc3nnc(NCc4cccc(Cl)c4)o3)ccc2[nH]1 [Example 77] | 201 to 1000 nM

same assay, conditions: voltage clamp -40 mV, 50 μM glutamate, 30 μM glycine, read-out: hNR2B IC50

Row | Compound | IC50
47 | O=C1CCc2cc(OCc3nnc(Nc4ccc(Cl)cc4)o3)ccc2N1 [Example 1, 6-((5-(4-chlorophenylamino)-1,3,4-oxadiazol-2-yl)methoxy)-3,4-dihydroquinolin-2(1H)-one] | 715 nM
48 | O=c1ccc2cc(OCc3nnc(-c4ccc(Cl)c(Cl)c4)o3)ccc2[nH]1 [Example 2, 6-((5-(3,4-dichlorophenyl)-1,3,4-oxadiazol-2-yl)methoxy)quinolin-2(1H)-one] | > 10000 nM
49 | CC(C)OC(=O)Nc1ccc(OCc2nnc(Nc3ccc(Cl)c(Cl)c3)o2)cc1 [Example 3, Isopropyl 4-((5-(3,4-dichlorophenylamino)-1,3,4-oxadiazol-2-yl)methoxy)phenyl carbamate] | 7300 nM
50 | O=C1CCc2cc(OCc3nnc(Nc4ccc(Br)cc4)o3)ccc2N1 [Example 4] | 265 nM
51 | O=C1CCc2cc(OCc3nnc(Nc4ccc(Cl)c(Cl)c4)o3)ccc2N1 [Example 5] | 57 nM
52 | O=c1ccc2cc(OCc3nnc(Nc4ccc(C(F)(F)F)cc4)o3)ccc2[nH]1 [Example 11] | 55 nM
53 | O=c1ccc2cc(OCc3nnc(Nc4ccc(OC(F)F)cc4)o3)ccc2[nH]1 [Example 17] | 80 nM
54 | O=C1CCc2cc(OCc3nnc(NCc4ccc(Cl)cc4)o3)ccc2N1 [Example 20] | 476 nM
55 | CS(=O)(=O)Nc1ccc(OCc2nnc(NCc3ccc(Cl)c(Cl)c3)o2)cc1 [Example 30] | 19 nM
56 | CCOC(=O)Nc1ccc(OCc2nnc(NCc3ccc(Cl)c(Cl)c3)o2)cc1 [Example 32] | 2120 nM
57 | O=c1ccc2cc(OCc3nnc(Nc4ccc(Cl)cc4F)o3)ccc2[nH]1 [Example 35] | 884 nM
58 | O=c1ccc2cc(OCc3nnc(Nc4ccc(Cl)c(F)c4)o3)ccc2[nH]1 [Example 49] | 18 nM
59 | O=c1ccc2cc(OCc3nnc(Nc4cc(Cl)cc(Cl)c4)o3)ccc2[nH]1 [Example 53] | 4040 nM
60 | O=c1ccc2cc(OCc3nnc(Nc4ccc(Cl)c(OC(F)(F)F)c4)o3)ccc2[nH]1 [Example 55] | 542 nM
61 | O=c1ccc2cc(OCc3nnc(Nc4cccc(Cl)c4)o3)ccc2[nH]1 [Example 58] | 830 nM
